Reference: ChEMBL document CHEMBL5712921, “Unlocking the Recovery Potential: JMJD3 Inhibition-Mediated SAPK/JNK Signaling Inactivation Supports Endogenous Oligodendrocyte-Lineage Commitment Post Mammalian Spinal Cord Injury” (Neurochem Res, 2021)
One block for each compound: values may come before it. Activity calls are given as the source filed them. The rule behind the calls is not given here.

How the values were obtained:
[1] = target: Lysine-specific demethylase 6B (Mus musculus) (UniProt Q5NCY0); assay: Inhibition of JMJD3 in mouse C17.2 cell assessed as increased number of olig2 positive cell at 10 uM by Hoechst staining analysis; type: cell-based
[2] = target: Lysine-specific demethylase 6B (Mus musculus) (UniProt Q5NCY0); assay: Inhibition of JMJD3 in mouse C17.2 cell assessed as decreased number of GFAP positive cell at 10 uM by Hoechst staining analysis; type: cell-based
[3] = target: Lysine-specific demethylase 6B (Mus musculus) (UniProt Q5NCY0); assay: Inhibition of JMJD3 in mouse C17.2 cell assessed as Olig2 expression at 10 uM by immunoblot analysis; type: cell-based
[4] = target: Lysine-specific demethylase 6B (Mus musculus) (UniProt Q5NCY0); assay: Inhibition of JMJD3 in mouse Neural Progenitor cell assessed as Olig2 expression at 10 uM by immunoblot analysis; type: cell-based
[5] = target: Lysine-specific demethylase 6B (Mus musculus) (UniProt Q5NCY0); assay: Inhibition of JMJD3 in mouse Neural Progenitor cell assessed as enhanced Olig2 expression at 10 uM by immunofluorescent staining; type: cell-based
[6] = test system: Mus musculus; assay: In vivo inhibition of JMJD3 in SCI mouse model assessed as upregulation of Olig2 expression administered at 100 mg/kg, ip for 5 days followed by subcutaneous administration for 7 days by immunoblot analysis; type: functional, organism-based; conditions: time 12.0 day
[7] = test system: Mus musculus; assay: In vivo inhibition of JMJD3 in SCI mouse model assessed as upregulation of H3K27me3 expression administered at 100 mg/kg, ip for 5 days followed by subcutaneous administration for 7 days by immunoblot analysis; type: functional, organism-based; conditions: time 12.0 day
[8] = species on record: Mus musculus; assay: […] of phosphorylated c-Jun at ser63 residue in SCI mouse model; type: functional, organism-based
[9] = test system: Mus musculus; assay: Remyelination activity of SCI mouse model assessed as olig2 positive tube like structure administered at 100 mg/kg, ip for 5 days followed by subcutaneous administration for 7 days by immunohistochemical analysis; conditions: time 12.0 day
[10] = target: Lysine-specific demethylase 6B (Mus musculus) (UniProt Q5NCY0); assay: […] of JMJD3 in mouse C17.2 cells at 10 uM for 3 hrs; type: cell-based
[11] = target: Lysine-specific demethylase 6B (Mus musculus) (UniProt Q5NCY0); assay: Inhibition of JMJD3 in mouse C17.2 cells at 20 uM for 3 hrs; type: cell-based

Chain of Lysine-specific demethylase 6B (Mus musculus) (Q5NCY0 whole entry): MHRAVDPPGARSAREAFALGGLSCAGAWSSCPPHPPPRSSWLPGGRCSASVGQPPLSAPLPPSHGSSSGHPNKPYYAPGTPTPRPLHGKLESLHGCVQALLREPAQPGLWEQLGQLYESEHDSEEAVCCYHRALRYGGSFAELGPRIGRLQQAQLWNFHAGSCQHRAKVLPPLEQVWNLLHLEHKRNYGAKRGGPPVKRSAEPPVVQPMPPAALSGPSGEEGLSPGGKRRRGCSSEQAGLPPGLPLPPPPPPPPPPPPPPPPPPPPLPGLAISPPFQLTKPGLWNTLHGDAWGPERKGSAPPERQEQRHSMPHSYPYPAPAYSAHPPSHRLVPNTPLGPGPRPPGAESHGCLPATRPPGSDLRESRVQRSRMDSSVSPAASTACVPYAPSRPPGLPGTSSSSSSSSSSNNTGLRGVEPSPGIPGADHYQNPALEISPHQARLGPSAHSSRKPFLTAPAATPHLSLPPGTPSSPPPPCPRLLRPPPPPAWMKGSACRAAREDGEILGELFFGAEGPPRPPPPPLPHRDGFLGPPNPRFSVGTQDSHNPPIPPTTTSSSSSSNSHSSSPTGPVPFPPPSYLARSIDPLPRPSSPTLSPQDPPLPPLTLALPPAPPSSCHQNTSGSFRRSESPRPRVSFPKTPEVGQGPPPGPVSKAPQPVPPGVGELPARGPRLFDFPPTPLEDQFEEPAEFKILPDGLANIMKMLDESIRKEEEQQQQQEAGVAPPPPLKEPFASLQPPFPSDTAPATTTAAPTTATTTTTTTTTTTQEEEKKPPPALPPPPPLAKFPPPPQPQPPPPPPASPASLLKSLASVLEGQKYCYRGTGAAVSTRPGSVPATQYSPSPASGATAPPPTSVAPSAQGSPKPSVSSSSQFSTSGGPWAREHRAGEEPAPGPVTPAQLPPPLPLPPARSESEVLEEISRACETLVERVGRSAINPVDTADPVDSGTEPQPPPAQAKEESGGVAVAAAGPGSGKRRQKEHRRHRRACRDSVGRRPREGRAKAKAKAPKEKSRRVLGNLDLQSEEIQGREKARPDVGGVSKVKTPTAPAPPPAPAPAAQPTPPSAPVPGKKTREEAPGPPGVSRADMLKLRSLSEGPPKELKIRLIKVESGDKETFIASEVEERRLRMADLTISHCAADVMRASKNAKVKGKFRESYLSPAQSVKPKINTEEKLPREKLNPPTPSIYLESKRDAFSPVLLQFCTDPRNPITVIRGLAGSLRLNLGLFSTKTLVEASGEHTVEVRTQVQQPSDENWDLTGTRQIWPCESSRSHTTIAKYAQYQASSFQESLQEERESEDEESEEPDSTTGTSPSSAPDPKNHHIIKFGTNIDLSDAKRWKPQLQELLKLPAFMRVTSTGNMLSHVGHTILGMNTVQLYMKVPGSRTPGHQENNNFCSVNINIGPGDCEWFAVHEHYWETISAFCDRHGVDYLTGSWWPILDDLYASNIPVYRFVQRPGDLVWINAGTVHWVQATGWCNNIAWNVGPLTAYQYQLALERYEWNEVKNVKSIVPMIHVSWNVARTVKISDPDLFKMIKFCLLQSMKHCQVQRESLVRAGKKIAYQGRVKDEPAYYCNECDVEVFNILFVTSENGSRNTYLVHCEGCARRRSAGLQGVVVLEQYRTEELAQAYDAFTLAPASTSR

- inhibition [1]: Active
- inhibition [2]: Active
- inhibition [3]: Active
- inhibition [4]: Active
- inhibition [5]: Active
Compound: CCOC(=O)CCNc1cc(N2CCc3ccccc3CC2)nc(-c2ccccn2)n1
- inhibition [6]: Active
- inhibition [7]: Active
- Activity [8]: Active
- Activity [9]: Active

- Activity [10]: Active
Compound: CC[C@]1(O)C[C@@H]2CN(CCc3c([nH]c4ccccc34)[C@@](C(=O)OC)(c3cc4c(cc3OC)N(C)[C@H]3[C@@](O)(C(=O)OC)[C@H](OC(C)=O)[C@]5(CC)C=CCN6CC[C@]43[C@@H]65)C2)C1

- inhibition [11]: Active
Compound: O=C1c2ccccc2-c2n[nH]c3cccc1c23
